Reference: paper PMC4742234, “Screening of Drug Metabolizing Enzymes for the Ginsenoside Compound K In Vitro: An Efficient Anti-Cancer Substance Originating from Panax Ginseng” (PLoS ONE, 2016)

Experiments:
CYP3A4 = system: CYP3A4; set-up: method as in Hao et al.(2008); settings: baculosomes, ref Hao et al.(2008); cited from earlier work
[1] = substrate: CC(C)=CCC[C@](C)(OC1O[C@H](CO)[C@@H](O)[C@H](O)[C@H]1O)[C@H]1CC[C@]2(C)[C@@H]1[C@H](O)C[C@@H]1[C@@]3(C)CC[C@H](O)C(C)(C)[C@@H]3CC[C@]12C; test: Kinetic analysis of CK metabolism by recombinant CYP2C9; format: in vitro ADME, human; settings: other: recombinant CYP2C9 10 pmol, CK 10–100 μM; pH 7.4; 37.0 °C
Description: The method was conducted according to our previous study with some modifications. The CYP isoform-specific probe reactions used were phenacetin O-deethylation (for CYP1A2), coumarin 7-hydroxylation (for CYP2A6), tolbutamide 4-hydroxylation (for CYP2C9), metoprolol α-hydroxylation (for CYP2D6), chlorzoxazone 6-hydroxylation (for CYP2E1),S-Mephenytoin 4-hydroxylation (for CYP2C19), and midazolam 1-hydroxylation (for CYP3A4). The kinetic study of CK was conducted with HLMs. A 0.2 mL incubation mixture that consisted of CK (as a substrate), the HLMs (0.5 mg/mL) or CYP isoforms (10 pmol), and 0.1 M sodium phosphate buffer (pH 7.4) was pre-warmed for 5 min at 37°C. The reaction was initiated by the addition of 1 mg/mL triphosphopyridine nucleotide (NADPH). […]
The kinetic parameters for the metabolism of CK were determined by incubating increasing concentrations of CK (10–100 μM) at 37°C with the HLMs and NADPH under the incubation conditions as described in detail previously. The equation of CK reaction velocity (V) in the HLMs or CYP isoforms is expressed as V = (C0–Ct)/T/Cp, where C0and Ct are the initial and final concentrations of CK in the incubation solution, respectively, T is the incubation time (min), and Cp is the protein concentration (mg/mL or nmol). All values were expressed as the mean±standard deviation (SD). […]

Molecule	CYP3A4 inhibition (CYP3A4)	Km [1]
CC(C)=CCC[C@](C)(O)[C@H]1CC[C@]2(C)[C@@H]1[C@H](O)C[C@@H]1[C@@]3(C)CC[C@H](O[C@@H]4O[C@H](CO)[C@@H](O)[C@H](O)[C@H]4O)C(C)(C)[C@@H]3CC[C@]12C [Rh2, reference compound]	moderate	
recombinant CYP2C9 (Homo sapiens) (protein, purchased Cypex Ltd. (U.K.)) MDSLVVLVLCLSCLLLLSLWRQSSGRGKLPPGPTPLPVIGNILQIGIKDISKSLTNLSKVYGPVFTLYFGLKPIVVLHGYEAVKEALIDLGEEFSGRGIFPLAERANRGFGIVFSNGKKWKEIRRFSLMTLRNFGMGKRSIEDRVQEEARCLVEELRKTKASPCDPTFILGCAPCNVICSIIFHKRFDYKDQQFLNLMEKLNENIKILSSPWIQICNNFSPIIDYFPGTHNKLLKNVAFMKSYILEKVKEHQESMDMNNPQDFIDCFLMKMEKEKHNQPSEFTIESLENTAVDLFGAGTETTSTTLRYALLLLLKHPEVTAKVQEEIERVIGRNRSPCMQDRSHMPYTDAVVHEVQRYIDLLPTSLPHAVTCDIKFRNYLIPKGTTILISLTSVLHDNKEFPNPEMFDPHHFLDEGGNFKKSKYFMPFSAGKRICVGEALAGMELFLFLTSILQNFNLKSLVDPKNLDTTPVVNGFASVPPFYQLCFIPV		34.63 ± 10.48 µM
